System: Soybean cv. A3555 dry embryos
Assay: Transformation frequency, PEG compared to other osmotic compounds
Type: cell-based
Details: 1 hour contact, AB30/OriRi
Excerpt: It also compares TF enhancement of treatments with various PEG species. Soybean cv. […] dry embryos were excised according to the method described in U.S. Patent Application Publication No. 2008/0280361 and contacted for an hour with various amounts of PEG-4000, PEG-6000, PEG-8000, Mannitol, Sorbitol, or Glycerol dissolved in SDW. The embryos were then rinsed 5-6× with SDW and transformed according to the methods described in U.S. Patent Application Publication No. 2009/0138985. The embryos were transformed with a 2T transformation vector having an OriRi replication of origin and contained in AB30 strain of Agrobacterium. The embryos were regenerated on spectinomycin selection medium.

Row | Compound | # R0 Plants (10% in SDW) | TF (10% in SDW) [%] | # R0 Plants (20% in SDW) | TF (20% in SDW) [%]
1 | OCC(O)CO [glycerol, Glycerol] | 4 | 2.30 | 0 | 0.00
2 | OC[C@@H](O)[C@@H](O)[C@H](O)[C@H](O)CO [mannitol, Mannitol] | 5 | 0.50 | – | –
3 | OC[C@@H](O)[C@@H](O)[C@H](O)[C@@H](O)CO [sorbitol, Sorbitol] | 4 | 0.40 | 3 | 0.30

Source: US11473094B2, “Methods for improving competency of plant cells” (Monsanto Technology LLC, priority 2010, dated 2022)
